The text below walks through data of patent EP1131297B1, “CERTAIN SUBSTITUTED CAPROLACTAMS, PHARMACEUTICAL COMPOSITIONS CONTAINING THEM AND THEIR USE IN TREATING TUMORS” (Novartis AG, priority 1998, dated 2000).

As a reminder, the IC50 is the concentration that gives 50% inhibition. Low readings indicate greater potency, high ones weaker potency.

Read-outs that look alike come from different tables or passages of the source.

In data set [1] the test system is MDA-MB-435 tumor xenografts. The data set is described as follows: Human tumor xenograft growth inhibition in athymic nude mouse model. The data set is classed as in vivo, athymic (nu/nu) mice. On the procedure:
The histologic tumor type employed was MDA-MB-435 breast carcinoma.
Positive controls are carried out with doxorubicin administered 3 times per week i.v.
Anti-tumor activity was expressed as %T/C (Δ MTV of treated group ö Δ MTV of control group X100).
On the technique in general: Xenograft models place foreign cells or tissue in a host animal.

For data set [2], the system named is MDA-MB-435 breast carcinoma. The data set can be described thus: Anchorage Dependent Growth Monolayer Assay (ADGMA), MTS readout. In kind it is cell-based. The note with it: average ± S.D., 3-day exposure, A490. The source says: As indicated above, all of the compounds of formula I, and their corresponding pharmaceutically acceptable acid addition salts, are anti-tumor agents and are, therefore, useful in inhibiting the growth of various lymphomas, sarcomas, carcinomas, myelomas, and leukemia cell lines. […] This assay was adapted from the 60 cell line assay used by the National Cancer Institute (NCI) with the following modifications: 1) a single cell line representative for the important tumor type, viz., MDA-MB-435 breast carcinoma was utilized; 2) a tetrazolium derivative, viz., MTS, was utilized to determine cell density.
The ADGMA compares the number of viable cells following a 3-day exposure to a test compound relative to a number of cells present at the time the test compound was added. […] The absorbance at 490 nm (A490) of the formazan derivative is proportional to the number of viable cells. The IC50 for a test compound is the concentration of compound required to reduce the final cell number to 50% of the final control cell number. If cell proliferation is inhibited, the assay further defines compounds as cytostatic (cell number after 3-day compound incubation >cell number at time of compound addition) or cytotoxic (cell number after 3-day compound incubation <cell number at time of compound addition).
The MDA-MB-435 breast carcinoma line was obtained from the American Type Culture Collection (ATCC) and used between passages 4-20 following thawing. MDA-MB-435 breast carcinoma was maintained and plated in DME/F12 medium containing 10% fetal bovine serum, 15 mM HEPES (pH=7.4), penicillin 100 units/mL, and streptomycin 100 µg/mL.
Cell lines are trypsinized and counted using a Coulter counter to determine plating densities. Cells are then plated in their respective maintenance media (100 µL/well) in 96 well plates at the following densities: MDA-MB-435, 3,000 cells/well. The number of cells plates as determined in preliminary experiments, results in cell densities of 75-90% of confluency by 4 days after plating. Initial cell densities, assayed one day after plating, are roughly 0.15-0.20 absorbance units greater than the media blank. Ninety-six well plates are seeded on day 0 and the test compounds are added on day 1. A control plate is created for each cell line that receives media only in row A and cells in row B. One day following plating, test compounds are added (in a final volume of 100 µL) to the test plates. Control plates receive 10 µL MTS mixture (prepared fresh on day of addition to cell plates at a ratio of 10 µL of a 0.92 mg/mL solution of PMS to a 190 µL of a 2 mg/mL solution of MTS) and 100 µL media. A490 of control plates is read 4h after MTS addition to determine initial cell density values for each cell line. Three days after addition of test compound, 10 µL/well of MTS mixture is added to the test plates and A490 is read 4h later. A490 values for wells containing cells are corrected for media absorbance, then normalized to initial density readings to determine percent net growth. IC50 values are determined from graphs of percent net growth as a function of compound concentration. Percent net growth is calculated as (Cell + Drug A490 - Initial A490/Cell + Drug Vehicle A490 - Initial A490).

[3] abbreviates: 10 µmol/kg i.v., 3X/week for 3 weeks.
The mark [4] stands for this setting: 33 µmol/kg i.v., 3X/week for 3 weeks.
Setting [5] is: Mus musculus, MDA-MB-435, iv, 504 h, 10 µmol/kg i.v., 3X/week for 3 weeks, * = statistically significant (p=<0.05), read-out: %T/C.
Where [6] appears, read: Mus musculus, MDA-MB-435, iv, 504 h, 33 µmol/kg i.v., 3X/week for 3 weeks, * = statistically significant (p=<0.05), read-out: %T/C.
Setting [7] is: Mus musculus, MDA-MB-435, iv, 504 h, read-out: %T/C.
The mark [8] stands for this setting: 2 mg/kg i.v., 3X/week for 3 weeks (positive control).

With `CO[C@@H](C(=O)N[C@H]1CC[C@@H](OC(=O)C2CCCCCC2)CNC1=O)[C@H](O)[C@@H](O)[C@H](O)/C=C/C(C)(C)C` [Ex. 3], in data set [1] (setting [3]), the Dead/Total was 0/8 and the “Δ MTV” value is 69 mm^3. In data set [1] (setting [4]), the Dead/Total is 0/8 and the “Δ MTV” value stood at 49 mm^3. Also, in data set [1] (setting [5]), the response vs control in vivo at 10 µmol/kg is 39%. Also, in data set [1] (setting [6]), the response vs control in vivo at 33 µmol/kg was 28%. The compound also yielded an IC50 in data set [2] (Homo sapiens, MDA-MB-435, 72 h) of 32 ± 14 nM.

As to `CO[C@@H](C(=O)N[C@H]1CC[C@@H](OC(=O)CCc2cccnc2)CNC1=O)[C@H](O)[C@@H](O)[C@H](O)/C=C/C(C)(C)C` [Ex. 5, (2R, 3R, 4S, 5R, 6E)-3,4,5-trihydroxy-2-methoxy-8,8-dimethyl-N-[(3S, 6R)-hexahydro-2-oxo-6-(1-oxo-3-[3-pyridyl]propoxy)-2H-azepin-3-yl]non-6-enamide], in data set [1] (setting [3]), the Dead/Total is 0/8 and the “Δ MTV” value is listed as 130 mm^3. In data set [1] (setting [4]), the Dead/Total is given as 0/8 and the “Δ MTV” value turned out to be 62 mm^3. Besides, in data set [1] (setting [5]), the response vs control in vivo at 10 µmol/kg was determined as 92%. Besides, the response vs control in vivo at 33 µmol/kg in data set [1] (setting [6]) turned out to be 44%. Further, the IC50 in data set [2] (Homo sapiens, MDA-MB-435, 72 h) was found to be 465 ± 204 nM.

As to `CO[C@@H](C(=O)N[C@H]1CC[C@@H](OC(=O)CC2CCCCC2)CNC1=O)[C@H](O)[C@@H](O)[C@H](O)/C=C/C(C)(C)C` [Ex. 6, (2R, 3R, 4S, 5R, 6E)-3,4,5-trihydroxy-2-methoxy-8,8-dimethyl-N-[(3S, 6R)-hexahydro-2-oxo-6-(cyclohexylmethylcarbonyl)oxy-2H-azepin-3-yl]non-6-enamide], in data set [1] (setting [3]), the Dead/Total is reported as 0/8 and the “Δ MTV” value was 66 mm^3. Also, in data set [1] (setting [4]), the Dead/Total is 0/8 and the “Δ MTV” value stood at 48 mm^3. Moreover, in data set [1] (setting [5]), the response vs control in vivo at 10 µmol/kg was found to be 47%. The response vs control in vivo at 33 µmol/kg in data set [1] (setting [6]) stood at 34%. The same compound showed an IC50 in data set [2] (Homo sapiens, MDA-MB-435, 72 h) of 65 ± 1 nM.

As for `CO[C@@H](C(=O)N[C@H]1CC[C@@H](OC(=O)Cc2ccccc2)CNC1=O)[C@H](O)[C@@H](O)[C@H](O)/C=C/C(C)(C)C` [Ex. 7, (2R, 3R, 4S, 5R, 6E)-3,4,5-trihydroxy-2-methoxy-8,8-dimethyl-N-[(3S, 6R)-hexahydro-2-oxo-6-(1-oxo-2-phenylethoxy)-2H-azepin-3-yl]non-6-enamide], in data set [1] (setting [3]), the Dead/Total is on record as 0/8 and the “Δ MTV” value amounted to 101 mm^3. In addition, in data set [1] (setting [4]), the Dead/Total is recorded as 0/8 and the “Δ MTV” value was 61 mm^3. The response vs control in vivo at 10 µmol/kg in data set [1] (setting [5]) came out at 72%. In addition, the response vs control in vivo at 33 µmol/kg in data set [1] (setting [6]) turned out to be 43%. In addition, in data set [2] (Homo sapiens, MDA-MB-435, 72 h), the IC50 was determined as 262 ± 70 nM.

In the case of `CO[C@@H](C(=O)N[C@H]1CC[C@@H](OC(=O)Cc2ccc(Cl)c(Cl)c2)CNC1=O)[C@H](O)[C@@H](O)[C@H](O)/C=C/C(C)(C)C` [Ex. 8, (2R, 3R, 4S, 5R, 6E)-3,4,5-trihydroxy-2-methoxy-8,8-dimethyl-N-[(3S, 6R)-hexahydro-2-oxo-6-(1-oxo-2-[3,4-dichlorophenyl]ethoxy)-2H-azepin-3-yl]non-6-enamide], the Dead/Total in data set [1] (setting [3]) and in data set [1] (setting [4]) was 0/8 in each case. The figures for the “Δ MTV” value in data set [1] (setting [3]) and in data set [1] (setting [4]) were 87 mm^3 and 94 mm^3, respectively. In data set [1] (setting [5]), the response vs control in vivo at 10 µmol/kg was determined as 62%. In data set [1] (setting [6]), the response vs control in vivo at 33 µmol/kg was determined as 67%. In addition, in data set [2] (Homo sapiens, MDA-MB-435, 72 h), inhibition was half-maximal at 175 ± 7 nM (IC50).

Take `COc1ccc(CC(=O)O[C@@H]2CC[C@H](NC(=O)[C@H](OC)[C@H](O)[C@@H](O)[C@H](O)/C=C/C(C)(C)C)C(=O)NC2)cc1` [Ex. 9, (2R, 3R, 4S, 5R, 6E)-3,4,5-trihydroxy-2-methoxy-8,8-dimethyl-N-[(3S, 6R)-hexahydro-2-oxo-6-(1-oxo-2-[4-methoxyphenyl]ethoxy)-2H-azepin-3-yl]non-6-enamide]: in data set [1] (setting [3]), the Dead/Total is 0/8 and the “Δ MTV” value came out at 107 mm^3. Besides, in data set [1] (setting [4]), the Dead/Total is recorded as 0/8 and the “Δ MTV” value came out at 68 mm^3. Also, in data set [1] (setting [5]), the response vs control in vivo at 10 µmol/kg worked out at 76%. Moreover, the response vs control in vivo at 33 µmol/kg in data set [1] (setting [6]) is 48%. Besides, the IC50 in data set [2] (Homo sapiens, MDA-MB-435, 72 h) worked out at 335 ± 141 nM.

As to `CCCCCCCCCCOc1ccc(C(=O)O[C@@H]2CC[C@H](NC(=O)[C@H](OC)[C@H](O)[C@@H](O)[C@H](O)/C=C/C(C)(C)C)C(=O)NC2)cc1` [Ex. 10, (2R, 3R, 4S, 5R, 6E)-3,4,5-trihydroxy-2-methoxy-8,8-dimethyl-N-[(3S, 6R)-hexahydro-2-oxo-6-([4-n-decyloxyphenyl]carbonyl)oxy-2H-azepin-3-yl]non-6-enamide], in data set [1] (setting [3]), the Dead/Total is given as 0/8 and the “Δ MTV” value amounted to 115 mm^3. In data set [1] (setting [4]), the Dead/Total is recorded as 0/8 and the “Δ MTV” value was 4 mm^3. Further, the response vs control in vivo at 10 µmol/kg in data set [1] (setting [5]) is 64%. In addition, the response vs control in vivo at 33 µmol/kg in data set [1] (setting [6]) is 2%. In addition, half-maximal inhibition in data set [2] (Homo sapiens, MDA-MB-435, 72 h) (IC50) was put at 8 ± 4 nM.

Take `CO[C@@H](C(=O)N[C@H]1CC[C@@H](OC(=O)/C=C/c2ccccc2)CNC1=O)[C@H](O)[C@@H](O)[C@H](O)/C=C/C(C)(C)C` [Ex. 11]: in data set [1] (setting [3]), the Dead/Total is recorded as 0/8 and the “Δ MTV” value is on record as 135 mm^3. Besides, in data set [1] (setting [4]), the Dead/Total is 0/8 and the “Δ MTV” value was found to be 76 mm^3. Also, in data set [1] (setting [7]), the response vs control in vivo at 10 µmol/kg came out at 76% and the response vs control in vivo at 33 µmol/kg is 43%. Also, the IC50 in data set [2] (Homo sapiens, MDA-MB-435, 72 h) was 19 ± 5 nM.

For `CCCCCCCCCCc1ccc(C(=O)O[C@@H]2CC[C@H](NC(=O)[C@H](OC)[C@H](O)[C@@H](O)[C@H](O)/C=C/C(C)(C)C)C(=O)NC2)cc1` [Ex. 12, (2R, 3R, 4S, 5R, 6E)-3,4,5-trihydroxy-2-methoxy-8,8-dimethyl-N-[(3S, 6R)-hexahydro-2-oxo-6-([4-n-decylphenyl]carbonyl)oxy-2H-azepin-3-yl]non-6-enamide], in data set [1] (setting [3]), the Dead/Total is listed as 0/8 and the “Δ MTV” value stood at 78 mm^3. Moreover, in data set [1] (setting [4]), the Dead/Total is 0/8 and the “Δ MTV” value was 11 mm^3. In data set [1] (setting [7]), the response vs control in vivo at 10 µmol/kg was determined as 52% and the response vs control in vivo at 33 µmol/kg stood at 7%. Also, the IC50 in data set [2] (Homo sapiens, MDA-MB-435, 72 h) amounted to 34 ± 46 nM.

Compound `CO[C@@H](C(=O)N[C@H]1CC[C@@H](OC(=O)Cc2ccsc2)CNC1=O)[C@H](O)[C@@H](O)[C@H](O)/C=C/C(C)(C)C` [Ex. 13, (2R, 3R, 4S, 5R, 6E)-3,4,5-trihydroxy-2-methoxy-8,8-dimethyl-N-[(3S, 6R)-hexahydro-2-oxo-6-(1-oxo-3-[3-thiophenyl]ethoxy)-2H-azepin-3-yl]non-6-enamide] yielded an IC50 in data set [2] of 300 nM.

With `COc1cccc2c1C(=O)c1c(O)c3c(c(O)c1C2=O)C[C@@](O)(C(=O)CO)C[C@@H]3O[C@H]1C[C@H](N)[C@H](O)[C@H](C)O1` [doxorubicin, reference compound], in data set [1] (setting [8]), the Dead/Total was 0/8 and the “Δ MTV” value is on record as 74 mm^3. For the same compound, the response vs control in vivo at 2 mg/kg in data set [1] (Mus musculus, MDA-MB-435, iv, 504 h, 2 mg/kg i.v., 3X/week for 3 weeks (positive control), * = statistically significant (p=<0.05), read-out: %T/C) was 42%. Moreover, the IC50 in data set [2] (Homo sapiens, MDA-MB-435, 72 h) stood at 137 ± 105 nM.

Compound “(2R, 3R, 4S, 5R, 6E)-3,4,5-trihydroxy-2-methoxy-8,8-dimethyl-N-[(3S, 6R)-hexahydro-2-oxo-6-(1-oxo-3-[3-indolyl]ethoxy)-2H-azepin-3-yl]non-6-enamide [Ex. 14]” registered a half-maximal inhibitory concentration (IC50) in data set [2] of 1240 ± 200 nM.
